Patent publication US6169181A, “Compounds useful to treat retroviral infections” (Pharmacia & Upjohn Company, priority 1998, dated 2001)
Like-named read-outs stand apart in the source and are kept apart here.

Legend:
[1] = target: T1, HIV-1 protease (Human immunodeficiency virus type 1 group M subtype B, UniProt P04585); experiment: biochemical; details: Table II, enzyme HIV-1
Procedure, shortened: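 Percent inhibition came from fluorescence of FITC-tagged cleavage product, separated by filtration from uncleaved substrate captured on streptavidin-coated beads. The enzyme (10 μl of 0.1 μM) and compound acted on a biotin/FITC dual-labelled peptide for one hour at room temperature in the dark. The reaction ran in 0.1 M sodium acetate, pH 5.5, with 1.0 M NaCl and 0.05% NP-40.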

[2] = target: T1, HIV-1 protease; experiment: biochemical
Procedure, shortened: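 Biotinylated, FITC-labelled peptide substrate cleaved in 0.1 M sodium acetate pH 5.5, 1.0 M NaCl, 0.05% NP-40, room temperature. Filtered labelled product read by fluorescence; nonlinear least-squares fit.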

[3] = target: T2, single chain tethered (tandem) HIV protease (HIV-1 M:B_HXB2R, UniProt P04585); experiment: Tandem HIV protease assay; assay type: biochemical; details: read-out: FITC KI; Table II; enzyme HIV1TANDEM
T2 construct: purified enzyme, FITC/biotin substrate assay
Procedure, shortened: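 Covalently tethered single-chain HIV protease dimer allows very low enzyme levels for Ki measurement. N-biotinylated, C-fluorescein-labelled peptide substrate incubated with enzyme and inhibitor at pH 5.5 in the dark for 96 h; streptavidin beads stop reaction, cleaved product filtered off and residual fluorescence fitted to obtain Ki.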

[4] = target: T3, HIV-2 (Human immunodeficiency virus type 2 subtype A, UniProt P04584); experiment: FITC Ki, enzyme HIV-2; assay type: biochemical; details: Table II
T3 construct: tested in the HIV protease screening assay and/or tandem HIV protease assay
T3 sequence (P04584 514-612 limits assumed): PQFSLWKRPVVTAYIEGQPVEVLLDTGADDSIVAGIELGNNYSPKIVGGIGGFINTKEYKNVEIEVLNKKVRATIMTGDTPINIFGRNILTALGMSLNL

[5] = test system: human T-cell lines, e.g., MT4 and H9, infected with HIV-1IIIB; experiment: Retroviral replication in infected human T-cell lines; assay type: cell-based; details: MT4 and H9 cells infected with HIV-1IIIB
Experimental: Several compounds of the present invention, such as N-[3-(1-[5,6-Dihydro-4-hydroxy-2-oxo-6-(2-phenethyl)-6-propyl-2H-pyran-3-yl]-2,2-dimethylpropyl)phenyl]-1-methyl-1H-imidazole-4-sulfonamide were tested in known human cell lines, such as human T-cell lines, e.g., MT4 and H9, which were infected with HIV-1IIIB, and certain of these compounds were further tested in peripheral blood mononuclear cells (PBMC), which were infected with HIV-1JRCSF (a clinical isolate).

[6] = Table II, enzyme HIV-1, read-out: FITC KI

| Structure (SMILES) | PROTEASE % INHIB. ([1]; DOSE 0.123 (unit not given)) | PROTEASE % INHIB. ([1]; DOSE 0.370 (unit not given)) | PROTEASE % INHIB. ([1]; DOSE 1.100 (unit not given)) | PROTEASE % INHIB. ([1]; DOSE 3.300 (unit not given)) | PROTEASE % INHIB. ([1]; DOSE 10.000 (unit not given)) | PROTEASE % INHIB. ([1]; DOSE 30.000 (unit not given)) | Ki [2, 6] | Ki [3] | Ki [4] | Ki ([2]; Table I, read-out: HIV Protease FITC Assay Ki) | inhibition of retroviral replication [5] |
| --- | --- | --- | --- | --- | --- | --- | --- | --- | --- | --- | --- |
| CCC(C1=C(O)C2CCCCC2OC1=O)c1cccc(NS(=O)(=O)c2ccc(C#N)cn2)c1 (stereo not shown) [Example 370] | 92.81% | 87.87% | 102.89% | 109.33% | 113.79% | 98.14% | 0.59 nM | 0.05 nM | 0.05 nM | – | – |
| N#Cc1ccc(S(=O)(=O)Nc2cccc(CC3=C(O)CC(CCc4ccccc4)(CCc4ccccc4)OC3=O)c2)nc1 [Example 353, N-[3-{1-(4-Hydroxy-5,6-dihydro-2-oxo-6,6-bis(2-phenylethyl)-2H-pyran-3-yl)methyl}phenyl]-5-cyanopyridine-2-sulfonamide] | 51.83% | 68.49% | 70.71% | 63.96% | 51.8% | 43.93% | 10.4 nM | 5.3 nM | – | – | – |
| CCCC1(CCc2ccccc2)CC(O)=C(C(c2cccc(NS(=O)(=O)c3cn(C)cn3)c2)C(C)(C)C)C(=O)O1 (stereo not shown) [Example 250, N-[3-(1-[5,6-Dihydro-4-hydroxy-2-oxo-6-(2-phenethyl)-6-propyl-2H-pyran-3-yl]-2,2-dimethylpropyl)phenyl]-1-methyl-1H-imidazole-4-sulfonamide] | – | – | – | – | – | – | – | – | – | 1.2 nM | inhibit retroviral replication |
| CCCC1(CCc2ccc(F)cc2)CC(O)=C(C(CC)c2cccc(NS(=O)(=O)c3ccc(C(N)=O)cn3)c2)C(=O)O1 (stereo not shown) [Example 332, N-[3-{1-(4-Hydroxy-5,6-dihydro-2-oxo-6-(2-(4-fluorophenyl)ethyl)-6-propyl-2H-pyran-3-yl)propyl}phenyl]-5-carbamoylpyridine-2-sulfonamide] | 81.87% | 85.65% | 86.23% | 93.28% | 91.68% | 95.08% | 1.6 nM | 0.4 nM | – | – | – |
| CCC(C1=C(O)CC(CCc2ccccc2)(CCc2ccccc2)OC1=O)c1cccc(NS(=O)(=O)c2ccc(C#N)cn2)c1 (stereo not shown) [Example 331, N-[3-{1-(4-Hydroxy-5,6-dihydro-2-oxo-6,6-bis(2-phenylethyl)-2H-pyran-3-yl)propyl}phenyl]-5-cyanopyridine-2-sulfonamide] | 99.76% | 104.06% | 108.51% | 99.3% | 103.28% | 93.3% | – | 0.272 nM | – | – | – |
